From patent US8093060B2, “Multisite phosphorylated peptide (protein) recognizing compound and detection method, imaging method, alzheimer's disease diagnosing method and reagent kit using the same” (Canon Kabushiki Kaisha, priority 2008, dated 2012)

Biological target: T1, phosphorylated tau aggregate (Homo sapiens, UniProt P10636)
T1 construct: made in house; host or cells: Escherichia coli
Assay: Fluorescence titration of BODIPY-Zn(Dpa) against phosphorylated tau aggregate (EC50)
Format: binding
Protocol: BODIPY-Zn(Dpa) was titrated against a phosphorylated tau aggregate, a tau aggregate, and an amyloid β aggregate to obtain EC50 (a probe concentration at which a half value of the maximum change (ΔFmax) in fluorescence intensity is observed). BODIPY-Zn(Dpa) was titrated against an aggregate at a predetermined concentration (1 μg/mL), and changes in fluorescence intensity at each concentration (ΔF) were plotted. Using a solvent obtained by adding 10% DMSO and 100 μM Zn(NO3)2 to HBS (10 mM HEPES (pH 7.4), 150 mM NaCl), the solution was incubated at 37° C. for 30 min, and fluorescence was measured (excitation wavelength, 490 nm; fluorescence wavelength, 545 nm).

T1 sequence (P10636 1-441 isoform P10636-8): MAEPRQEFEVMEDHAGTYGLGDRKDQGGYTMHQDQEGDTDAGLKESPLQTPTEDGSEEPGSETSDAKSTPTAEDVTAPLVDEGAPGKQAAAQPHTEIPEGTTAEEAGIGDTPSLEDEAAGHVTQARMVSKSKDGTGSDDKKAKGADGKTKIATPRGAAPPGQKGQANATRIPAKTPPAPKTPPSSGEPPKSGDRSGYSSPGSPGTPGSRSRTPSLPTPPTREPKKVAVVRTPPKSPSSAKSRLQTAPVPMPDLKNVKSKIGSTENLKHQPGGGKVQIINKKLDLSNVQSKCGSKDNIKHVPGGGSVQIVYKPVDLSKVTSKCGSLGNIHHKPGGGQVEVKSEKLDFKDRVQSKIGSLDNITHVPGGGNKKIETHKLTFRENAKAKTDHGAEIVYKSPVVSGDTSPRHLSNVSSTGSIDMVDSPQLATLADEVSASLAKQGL

## CC1=C(c2ccc(CN(C)Cc3ccccn3)nc2)C(C)=[N+]2C1=C(c1cc(OCCOCCOCCO)cc(OCCOCCOCCO)c1)c1c(C)c(-c3ccc(CN(C)Cc4ccccn4)nc3)c(C)n1[B-]2(F)F.O=[N+]([O-])[O-].O=[N+]([O-])[O-].O=[N+]([O-])[O-].O=[N+]([O-])[O-].[Zn+2].[Zn+2] [BODIPY-Zn(Dpa)]
Aggregate 1 μg/mL, 37° C., 30 min
  EC50: 9.1 nM
Higher than for the amyloid β aggregate
  affinity (EC50) for phosphorylated tau aggregate relative to amyloid β aggregate: 70 times
Higher than for the tau aggregate
  affinity (EC50) for phosphorylated tau aggregate relative to tau aggregate: 9 times
